US5859026A, “Quinoline carboxylic acid” (priority 1995, dated 1999)
Converted amounts (≈) assume the structure as drawn.

Key:
[1] = tested on: Male Wistar rats; assay: Induction of convulsions, intracerebroventricular (i.c.v.) administration; format: in vivo, rat; settings: 30 minutes after i.p. fenbufen 50 mg/kg, observed at least 4 hours; for Induction of convulsion, i.c.v. (number of rats with convulsions): animals with convulsions/animals tested
Method: 2) Intracerebroventricular (i.c.v.) administration
Male Wistar rats (weighing 180-220 g) were anesthetized with sodium pentobarbital at 45 mg/kg, i.p., and then the head of the rat was fixed in a stereotaxic apparatus. A stainless steel guide cannula for intracerebroventricular injectionin in 0.6 mm diameter was implanted as a guide cannula so as to be positioned at 1.5 mm above the left lateral cerebroventricle (A:6.2,R:1.0,H:+1.0) according to the brain atlas of De Groot (1959). The guide cannula was fixed by using a dental cement, and then closed with a stainless steel stylet in 0.3 mm diameter. Potassium penicillin G (10,000 units) were subcutaneously administered to prevent an infection. The rats were subjected to the experiments after recovery time for several days from the surgery.
For the measurement of the induction of convulsions, 50 mg/kg of fenbufen was intraperitoneally administered, and then the test compound was intracerebroventricularly administered after 30 minutes from the administration of fenbufen by means of a stainless steel cannula in 0.3 mm diameter that was connected with a polyethylene catheter and adjusted so as to be 1.5 mm longer than the guide cannula for an administration at an accurate position of cerebroventricle (H:+1.0). […] After the completion of the above experiment, the administered positions were confirmed by intraventricularly injecting 10 μl of 1% Evans blue to each of the rats, and followed by sectioning the brains.

[2] = tested on: Male Hartley guinea pigs; assay: Phototoxicity; format: in vivo, guinea pig; settings: 10 mg/kg intravenous, UV exposure 90 minutes, observed 24 hours after irradiation; animals with erythemas/animals tested
Method: Male Hartley guinea pigs were intravenously administered with test compounds at a dose of 10 mg/kg, and then immediately exposed to WVA on their backs for 90 minutes. Erythemas on the UV irradiated skin were observed 24 hours after the irradiation.

[3] = tested on: S. aureusHPC292; assay: Antibacterial activity (MIC), clinically isolated strain; format: cell-based; settings: Staphylococcus aureus, read-out: minimum inhibitory concentration (MIC)
Description: (§1) 1. Antibacterial spectrum against standard strains and clinically isolated strains

[4] = tested on: E. faecalis HPC984; assay: as above; format: cell-based; settings: Enterococcus faecalis; clinical isolate E. faecalis HPC984, Gram +, 10^6 viable cells per ml; read-out: minimum inhibitory concentration (MIC)
Description: as §1

[5] = tested on: S. marcescens HNR1544; assay: as above; format: cell-based; settings: Serratia marcescens; clinical isolate S. marcescens HNR1544, Gram -, 10^6 viable cells per ml; read-out: minimum inhibitory concentration (MIC)
Description: as §1

[6] = tested on: S. marcescens HNR1792; assay: as above; format: cell-based; settings: Serratia marcescens; clinical isolate S. marcescens HNR1792, Gram -, 10^6 viable cells per ml; read-out: minimum inhibitory concentration (MIC)
Description: as §1

[7] = tested on: S. aureus HPC308; assay: as above; format: cell-based; settings: Staphylococcus aureus; clinical isolate S. aureus HPC308, Gram +, 10^6 viable cells per ml; read-out: minimum inhibitory concentration (MIC)
Description: as §1

[8] = tested on: E. cloacae HNR1941; assay: as above; format: cell-based; settings: Enterobacter cloacae; clinical isolate E. cloacae HNR1941, Gram -, 10^6 viable cells per ml; read-out: minimum inhibitory concentration (MIC)
Description: as §1

[9] = tested on: E. faecalis HPC948; assay: as above; format: cell-based; settings: Enterococcus faecalis; clinical isolate E. faecalis HPC948, Gram +, 10^6 viable cells per ml; read-out: minimum inhibitory concentration (MIC)
Description: as §1

[10] = tested on: S. marcescens HNR1767; assay: as above; format: cell-based; settings: Serratia marcescens; clinical isolate S. marcescens HNR1767, Gram -, 10^6 viable cells per ml; read-out: minimum inhibitory concentration (MIC)
Description: as §1

[11] = tested on: A. calcoaceticus HNR904; assay: as above; format: cell-based; settings: Acinetobacter calcoaceticus; clinical isolate A. calcoaceticus HNR904, Gram -, 10^6 viable cells per ml; read-out: minimum inhibitory concentration (MIC)
Description: as §1

[12] = tested on: K. pneumoniae HNR869; assay: as above; format: cell-based; settings: Klebsiella pneumoniae; clinical isolate K. pneumoniae HNR869, Gram -, 10^6 viable cells per ml; read-out: minimum inhibitory concentration (MIC)
Description: as §1

[13] = tested on: A. calcoaceticus HNR916; assay: as above; format: cell-based; settings: Acinetobacter calcoaceticus; clinical isolate A. calcoaceticus HNR916, Gram -, 10^6 viable cells per ml; read-out: minimum inhibitory concentration (MIC)
Description: as §1

[14] = tested on: K. pneumoniae HNR858; assay: as above; format: cell-based; settings: Klebsiella pneumoniae; clinical isolate K. pneumoniae HNR858, Gram -, 10^6 viable cells per ml; read-out: minimum inhibitory concentration (MIC)
Description: as §1

[15] = tested on: S. aureus HPC527; assay: as above; format: cell-based; settings: Staphylococcus aureus; clinical isolate S. aureus HPC527, Gram +, 10^6 viable cells per ml; read-out: minimum inhibitory concentration (MIC)
Description: as §1

[16] = tested on: E. faecalis HPC975; assay: as above; format: cell-based; settings: Enterococcus faecalis; clinical isolate E. faecalis HPC975, Gram +, 10^6 viable cells per ml; read-out: minimum inhibitory concentration (MIC)
Description: as §1

[17] = tested on: E. cloacae HNR1946; assay: as above; format: cell-based; settings: Enterobacter cloacae; clinical isolate E. cloacae HNR1946, Gram -, 10^6 viable cells per ml; read-out: minimum inhibitory concentration (MIC)
Description: as §1

[18] = tested on: E. cloacae HNR1939; assay: as above; format: cell-based; settings: Enterobacter cloacae; clinical isolate E. cloacae HNR1939, Gram -, 10^6 viable cells per ml; read-out: minimum inhibitory concentration (MIC)
Description: as §1

[19] = tested on: K. pneumoniae HNR828; assay: as above; format: cell-based; settings: Klebsiella pneumoniae; clinical isolate K. pneumoniae HNR828, Gram -, 10^6 viable cells per ml; read-out: minimum inhibitory concentration (MIC)
Description: as §1

[20] = tested on: A. calcoaceticus HNR939; assay: as above; format: cell-based; settings: Acinetobacter calcoaceticus; clinical isolate A. calcoaceticus HNR939, Gram -, 10^6 viable cells per ml; read-out: minimum inhibitory concentration (MIC)
Description: as §1

[21] = tested on: E. coli NIHJ JC-2; assay: Antibacterial activity (MIC), standard strain; format: cell-based; settings: Escherichia coli, NIHJJC2; standard strain E. coli NIHJ JC-2, Gram -, 10^6 viable cells per ml; read-out: minimum inhibitory concentration (MIC)
Description: as §1

[22] = tested on: K. pneumoniae PCI-602; assay: Antibacterial activity (MIC), standard strain; format: cell-based; settings: Klebsiella pneumoniae, PCI602; standard strain K. pneumoniae PCI-602, Gram -, 10^6 viable cells per ml; read-out: minimum inhibitory concentration (MIC)
Description: as §1

[23] = tested on: S. aureus FDA 209P JC-1; assay: Antibacterial activity (MIC), standard strain; format: cell-based; settings: Staphylococcus aureus, FDA209P; standard strain S. aureus FDA 209P JC-1, Gram +, 10^6 viable cells per ml; read-out: minimum inhibitory concentration (MIC)
Description: as §1

[24] = tested on: S. marcescens IAM 1184; assay: Antibacterial activity (MIC), standard strain; format: cell-based; settings: Serratia marcescens, IAM1184; standard strain S. marcescens IAM 1184, Gram -, 10^6 viable cells per ml; read-out: minimum inhibitory concentration (MIC)
Description: as §1

[25] = tested on: E. colacae 963; assay: Antibacterial activity (MIC), standard strain; format: cell-based; settings: Enterobacter cloacae; standard strain E. colacae 963, Gram -, 10^6 viable cells per ml; read-out: minimum inhibitory concentration (MIC)
Method: as §1
Antibacterial activities (minimum inhibitory concentration: MIC) were determined according to the standard method of the Japan Society of Chemotherapy (Chemotherapy (Tokyo), 29 (1), 76, 1981) by using standard strains and strains isolated from patients of infectious disease (clinically isolated strains) and applying 10^6 viable cells per ml. […].

[26] = tested on: male ICR mice; assay: Induction of convulsions, intraperitoneal (i.p.) administration; format: in vivo, mouse; settings: 100 mg/kg i.p., 30 minutes after oral fenbufen 100 mg/kg; for Induction of convulsion, i.p. (number of mice with convulsions): animals with convulsions/animals tested
Description: 4. The induction of convulsions
1) Intraperitoneal (i.p.) administration

[27] = tested on: Chinese hamster lung cell line (CHL cell); assay: Chromosomal aberration test; format: cell-based; settings: 100 μg/ml, 6 hours treatment at 37° C., then 18 hours in fresh medium
Method: 2. Chromosomal aberration test
The experiments were carried out using a Chinese hamster lung cell line (CHL cell). The test compounds prepared were added to cultured cells, and cultivation was continued for 6 hours at 37° C. in 5% CO2. 2-(2-furyl)-3-(5-nitro-2-furyl) acrylamide was used as a positive control. After the cultivation for 6 hours, the cells were washed and added with fresh medium, and then cultivation was further continued for 18 hours. Colcemide solution was added to the culture 2 hours before the completion of the cultivation, and the chromosomal specimens were prepared after the cultivation was completed. Incidence rates of aberration cells were measured at the treatments with 100 μg/ml of the test compounds.

SMILES: Cc1c(N2CCNCC2)c(F)c(N)c2c(=O)c(C(=O)O)cn(C3CC3)c12 [Reference Compound B, 5-amino-1-cyclopropyl-6-fluoro-1,4-dihydro-8-methyl-4-oxo-7-piperazinylquinoline-3-carboxylic acid, reference compound]
- Induction of convulsions, i.c.v. (in words) [1]: convulsions were observed in all of the animals (each three animals)
- Induction of convulsion, i.c.v. (number of rats with convulsions) [1]: 3/3
- Phototoxicity (number of guinea pigs with erythemas) [2]: 0/5
- MIC [3]: 25 mg/L (≈ 69.4 µM)
- MIC [4]: 0.39 mg/L (≈ 1.08 µM)
- MIC [5]: 0.1 mg/L (≈ 0.277 µM)
- MIC [6]: 6.25 mg/L (≈ 17.3 µM)
- MIC [7]: 6.25 mg/L (≈ 17.3 µM)
- MIC [8]: 25 mg/L (≈ 69.4 µM)
- MIC [9]: 6.25 mg/L (≈ 17.3 µM)
- MIC [10]: 50 mg/L (≈ 139 µM)
- MIC [11]: 50 mg/L (≈ 139 µM)
- MIC [12]: 6.25 mg/L (≈ 17.3 µM)
- MIC [13]: 0.1 mg/L (≈ 0.277 µM)
- MIC [14]: 0.78 mg/L (≈ 2.16 µM)
- MIC [15]: 0.1 mg/L (≈ 0.277 µM)
- MIC [16]: 12.5 mg/L (≈ 34.7 µM)
- MIC [17]: 0.78 mg/L (≈ 2.16 µM)
- MIC [18]: 0.78 mg/L (≈ 2.16 µM)
- MIC [19]: 12.5 mg/L (≈ 34.7 µM)
- MIC [20]: 3.13 mg/L (≈ 8.69 µM)
- MIC [21]: 0.05 mg/L (≈ 0.139 µM)
- MIC [22]: 0.006 mg/L (≈ 0.0166 µM)
- MIC [23]: 0.1 mg/L (≈ 0.277 µM)
- MIC [24]: 0.2 mg/L (≈ 0.555 µM)
- MIC [25]: 0.1 mg/L (≈ 0.277 µM)
- Induction of convulsions, i.p. (in words) [26]: inducing actions of convulsions were not noticeable
- sedative symptoms considered as precursory symptoms of convulsions, i.p. [26]: All of the animals exhibited sedative symptoms
- Induction of convulsion, i.p. (number of mice with convulsions) [26]: 0/6
- sedative symptoms considered as precursory symptoms of convulsions, i.p. ([26]; listed as reference compound B): all of the animals exhibited sedative symptoms

SMILES: O=C(O)c1cn(C2CC2)c2cc(N3CCNCC3)c(F)cc2c1=O [Reference Compound A, Ciprofloxacin]
- Induction of convulsions, i.c.v. (in words) [1]: convulsions were observed in all of the animals (each three animals)
- Induction of convulsion, i.c.v. (number of rats with convulsions) [1]: 3/3
- Induction of convulsions, i.p. (in words) [26]: convulsions were observed in the half of the animals
- Induction of convulsion, i.p. (number of mice with convulsions) [26]: 3/6
- incidence rate of the aberration cells [27]: less than 10%
